# Reference: paper PMC1190152, “Archazolid and apicularen: Novel specific V-ATPase inhibitors” (BMC Biochemistry, 2005)
# Like-named read-outs stand apart in the source and are kept apart here.
# Assays:
# Vo subunit c [1] = target: T1, Vo subunit c (Manduca sexta, UniProt P31403); assay: Protection of V-ATPase subunit c from photoaffinity labelling by I-concanolide A; assay type: binding; conditions: pre-incubation 100 μM or 10 μM, 60 min on ice; I-concanolide A 10 μM; UV
# T1 construct: from tissue; host or cells: midgut of Manduca sexta larvae (purified V-ATPase)
# T1 sequence (P31403 whole entry): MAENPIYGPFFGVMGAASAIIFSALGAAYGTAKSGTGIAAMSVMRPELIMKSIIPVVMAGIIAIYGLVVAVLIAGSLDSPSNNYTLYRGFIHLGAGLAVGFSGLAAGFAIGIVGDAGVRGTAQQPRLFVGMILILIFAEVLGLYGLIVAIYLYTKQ
# Description: Twenty micrograms of the samples were pre-incubated with the inhibitors for 1 h on ice. The labelled I-concanolide A was then added to give a final concentration of 10 μM. Controls were run without effectors. Mixtures with volumes of 40 μl were incubated for an additional 1 h on ice and then treated for 3 min with UV light (366 nm) on ice. After UV irradiation, 10 μl of 5-fold sample buffer was added, the mixture was heated for 45 s at 95°C, cooled on ice, and subjected to Tricine-SDS-PAGE (16.5% T, 3% C separating gel and 10%T, 3% C spacer gel), followed by Coomassie staining. The gels were sealed in plastic wrap before they were exposed to a phosphoscreen for up to 72 h and analyzed with the aid of a phosphoimager (Molecular Dynamics).
# A-594 [2] = test system: A-594; parameters: method as in PMID 10048565; conditions: A-594, human lung carcinoma; ref [15]; read-out: IC50 growth inhibition; cited from earlier work
# M1 = assay: Growth inhibition of M1 cells (MTT assay); assay type: cell-based, mouse; conditions: 120 h, read-out: IC50 growth inhibition
# Description: (§1) Cell lines were obtained from the German Collection of Microorganisms and Cell Cultures (DSMZ). Cell lines 3Y1 and M1 (embryonal fibroblasts from 129/Ola × C57BL/6 mice, [30]) were a generous gift from Dr. S. Miyamoto, Fukoka, Japan, and Dr. P. F. Mühlradt, Braunschweig, Germany. All cell lines were cultivated under conditions recommended by the supplier. Growth inhibition was measured in microtiterplates. Aliquots of 120 μl of the suspended cells (50,000/ml) were given to 60 μl of a serial dilution of the inhibitor. After 5 days, growth was determined using the MTT assay.
# PtK2 cells = assay: Inhibition of lysosomal acidification (LysoTracker staining); assay type: cell-based, potoroo; conditions: 4 hours with inhibitor
# Description: PtK2 (ATCC CCL-56) or KB-3-1 cells were grown on glass coverslips (13 mm diameter) in four-well-plates. Exponentially growing cells were incubated with the inhibitors for 4 hours and stained for lysosomes with 50 nM LysoTracker Red DND-99 and for mitochondria with 75 nM MitoTracker Green FM (both from Molecular Probes) at 37°C for 30 min. The nuclei were stained using Hoechst 33258 (5 μg/ml). The coverslips were mounted upside down in PBS, fixed with nail polish, and observed under the fluorescent microscope.
# bacterial growth = conditions: ref [11],[15],[17]; cited from earlier work
# [3] = target: T2, V-ATPase holoenzyme from the midgut of the tobacco hornworm (Manduca sexta, UniProt P31403); assay: Inhibition of purified V-ATPase holoenzyme activity; assay type: biochemical; conditions: for IC50 per mg of protein, purified V-ATPase: equivalent of the half-maximal concentration
# T2 construct: purified V-ATPase holoenzyme from the midgut of the tobacco hornworm; from tissue; host or cells: midgut of fifth instar Manduca sexta larvae
# T2 sequence (P31403 whole entry): as above
# Description: (§2) The V-ATPase holoenzyme was purified as published elsewhere. Preparation of highly purified membranes containing Na^+/K^+-ATPase from pig kidney followed the protocol of Jørgensen with the three main steps of differential centrifugation, incubation with SDS in the presence of ATP and sucrose density gradient centrifugation in a fixed angle rotor, and led to a specific enzyme activity which was in the same range as that reported by the authors. The resulting sample was stored frozen at -20°C. To prepare crude membrane extracts, the hearts of three mice were washed three times with an ice-cold buffer of pH 8.1 consisting of 0.25 M sucrose, 5 mM Tris-HCl, 5 mM EDTA, and 10 mM Pefabloc SC (Biomol), homogenized in 5 ml of this buffer and centrifuged at 4°C for 25 min at 233,000 × gmax in a fixed angle rotor. The resulting pellet was resuspended in 5 ml of a buffer of pH 7.5, consisting of 5 mM Tris-MOPS (3-morpholinopropanesulfonic acid), 10 mM NaCl, 10 mM Pefabloc SC, 9.6 mM 2-mercaptoethanol, 0.53 mM EGTA and 0.1 % Triton X-100. After an aliquot for protein determination had been taken, 10% bovine serum albumin (final concentration) was added to the suspension which was then stored on ice until the activity assays were run. Beef heart mitochondria were isolated by differential centrifugation, following the protocol of Smith by using a blender to homogenize the heart mince. The initial homogenization buffer consisted of 250 mM saccharose, 10 mM KH2PO4, 10 mM Tris, 2 mM EGTA, 2 mM MgCl2, pH 7.4, and further isolation procedures were carried out in the same medium without EGTA [24]. Submitochondrial particles were obtained by ultrasonic treatment of the mitochondria.
# (§3) Standard V-ATPase assays with a final volume of 160 μl and a pH of 8.1 consisted of 3–4 μg of protein, 50 mM Tris-MOPS, 3 mM 2-mercaptoethanol, 1 mM MgCl2, 20 mM KCl, 0.003% C12E10, 20 mM NaCl, and 3 mM Tris-HCl. After 5 min of pre-incubation at 30°C with or without inhibitors, 1 mM Tris-ATP was added and after incubation for 2 min the reaction was stopped by placing the tube in liquid nitrogen. Assays using Na^+/K^+-ATPase were performed in 160 μl at pH 7.5 and contained 0.5 μg of protein, 50 mM Tris-MOPS, 5 mM imidazole, 0.2 mM EDTA, 4 mM MgCl2, 20 mM KCl and 100 mM NaCl. After 5 min of pre-incubation at 37°C with or without inhibitors, 3 mM Tris-ATP was added and after 1 min of incubation the reaction was stopped by placing the tube in liquid nitrogen. […] After 5 min of pre-incubation at 30°C with or without inhibitors, 1 mM Tris-ATP was added and after an incubation time of 10 min the reaction was stopped by placing the tubes in liquid nitrogen. ATPase assays with submitochondrial particles from beef heart were performed in a final volume of 1 ml and a pH of 8.0. The samples contained 9–12 μg protein, 50 mM Tris, 50 mM KCl and 2.5 mM MgCl2. After 5 min of preincubation with or without inhibitors, 5 mM ATP was added, and after an additional incubation time of 15 min the reaction was stopped by the addition of 0.4 ml of 20 % TCA.
# (§4) Inorganic phosphate produced in the assays of V-ATPase, Na^+/K^+-ATPase and mouse heart F-ATPase was measured according the protocol of Wieczorek et al., while the determination of inorganic phosphate produced in the assays of beef heart F-ATPase followed the method of Fiske and Subarrow using ascorbic acid as reducing agent.
# Fifth instar larvae of M. sexta (Lepidoptera, Sphingidae), weighing 6–8 g, were reared under long day conditions (16 h of light) at 27°C using a synthetic diet modified according to Bell et al.
# KB-V1 = assay: Growth inhibition of multidrug-resistant KB-V1 cells (MTT assay), with or without verapamil; assay type: cell-based; conditions: 120 h; KB-V1, mdr human cervix carcinoma; without verapamil; MTT after 5 days
# Description: The novel antibiotics archazolids and apicularens (Fig. 1) were checked for their impact on the cell growth of a variety of mammalian cell lines from different tissues (Tab. 1). […] Apicularen B was the only exception, with an average IC50 value two orders of magnitude higher. Growth inhibition of the multidrug-resistant cell line KB-V1 was also measured in the presence of verapamil. […] The data in Tab 1. show, that unlike the archazolids, the apicularens are poor substrates of Pgp. To visualize the impact of the antibiotics, PtK2 (potoroo kidney) cells were incubated with the inhibitors and stained for intact acidic lysosomes (Fig. 2). […] The same observation was made with KB-3-1 cells (data not shown). […] Unlike the cell lines listed in Tab. 1, the growth of PtK2 cells was not completely stopped. The same holds true for A-498 cells (human kidney carcinoma). Both cell lines grow epithelial-like. There was obviously a differential reaction of cell lines to V-ATPase inhibitors. For A-431 cells (human epidermoid carcinoma) a dependence on the expression of the EGF receptor was shown.
# as §1
# Na+/K+-ATPase = target: T3, Na+/K+-ATPase (Sus scrofa, UniProt P05024); assay: Inhibition of Na+/K+-ATPase from pig kidney; assay type: biochemical; conditions: inhibitor 1 μM
# T3 construct: highly purified, Na^+/K^+-ATPase containing plasma membranes from pig kidney; from tissue; host or cells: pig kidney, purified plasma membranes
# Description: as §2, §3, §4
# 3Y1 = assay: Growth inhibition of 3Y1 cells (MTT assay); assay type: cell-based, rat; conditions: read-out: IC50 growth inhibition
# Description: as §1
# A-594 [4] = assay: Growth inhibition of A-594 cells (MTT assay); assay type: cell-based, human; conditions: 120 h, read-out: IC50 growth inhibition
# Description: as §1
# L-929 = test system: L-929; parameters: method as in PMID 12931860; conditions: L-929, murine connective tissue; ref [17]; read-out: IC50 growth inhibition; cited from earlier work
# Vo subunit c [5] = target: T1, Vo subunit c; parameters: method as in PMID 12186879; conditions: previous study; ref [10]; cited from earlier work
# [6] = target: T2, V-ATPase holoenzyme from the midgut of the tobacco hornworm; parameters: method as in PMID 12186879; conditions: ref [10], cited from earlier work; for IC50: read-out: half-maximal inhibition concentration of purified V-ATPase
# mammalian V-ATPases = conditions: ref [11],[15],[17]; cited from earlier work
# V-ATPases from fungi = conditions: Saccharomyces cerevisiae or Neurospora crassa; ref [11],[15],[17]; cited from earlier work
# [7] = M1, mouse embryogenic fibroblast cell line, MTT after 5 days
# [8] = 120 h, 3Y1, rat embryogenic fibroblast cell line, MTT after 5 days
# [9] = A-594, human lung carcinoma, MTT after 5 days
Compound,labelling of subunit c by I-concanolide A after pre-incubation (Vo subunit c [1]),IC50 (M1; [7]) [nM],red LysoTracker staining indicating acidic lysosomes (PtK2 cells),inhibition of bacterial growth (bacterial growth),"IC50 per mg of protein, purified V-ATPase [3]",IC50 (KB-V1) [nM],"specific activity of Na+/K+-ATPase (Na+/K+-ATPase; experiment 1, control 19.0) [µmol/mg/min]","specific activity of Na+/K+-ATPase (Na+/K+-ATPase; experiment 2, control 15.9) [µmol/mg/min]",effect on Na+/K+-ATPase activity (Na+/K+-ATPase),IC50 (3Y1; [8]) [nM],IC50 (A-594 [4]; Homo sapiens) [nM],"IC50 (M1; Mus musculus, Fibroblast) [nM]",IC50 [3] [nM],IC50 (L-929) [nM],"IC50 (3Y1; Rattus norvegicus, 3Y1, 120 h) [nM]",IC50 (A-594 [4]; [9]) [nM],labelling of / binding to subunit c (Vo subunit c [5]),"IC50 per mg of protein, purified V-ATPase [6]",IC50 [6] [nM],further results
CC/C=C\C=C/C(=O)N/C=C/C[C@H]1C[C@H]2C[C@H](O)C[C@H](Cc3cccc(O)c3C(=O)O1)O2 [apicularen A],did not appear to interfere,1.4,disappeared,failed to inhibit,ca. 0.8 nmol per mg of protein,23,17.3,13.2,only slightly affected,3.2,,,,,,,,,,"IC50 (A-594 [2]): 0.23 nM; IC50 ([3]; purified holoenzyme, 3–4 μg protein, pH 8.1, 30°C, read-out: half-maximal inhibition concentration of purified V-ATPase): ~20 nM"
CNC(=O)O[C@@H](CC(C)C)c1nc([C@H]2OC(=O)/C(C)=C/C/C(C)=C/[C@@H](O)[C@@H](C)\C=C(C)/C=C(C)\C=C\[C@@H](O)[C@H](C)[C@H](OC)/C(C)=C/C=C/[C@@H]2C)cs1 [archazolid A],completely abolished,,disappeared,failed to inhibit,ca. 0.8 nmol per mg of protein,48,17.1,12.2,only slightly affected,,0.54,0.27,~20,0.81,0.95,,,,,
CNC(=O)O[C@@H](CC(C)C)c1nc([C@H]2OC(=O)/C=C/C/C(C)=C/[C@@H](O)[C@@H](C)\C=C(C)/C=C(C)\C=C\[C@@H](O)[C@H](C)[C@H](OC)/C(C)=C/C=C/[C@@H]2C)cs1 [archazolid B],,,,failed to inhibit,ca. 0.8 nmol per mg of protein,35,,,,,0.69,0.35,~20,1.1,1.1,,,,,
"CO/C1=C\C(C)=C\[C@@H](C)[C@@H](O)[C@@H](C)C/C(C)=C/C=C/[C@H](OC)[C@@H]([C@@H](C)[C@@H](O)[C@H](C)[C@@]2(O)C[C@@H](O)[C@H](C)[C@@H](C(C)C)O2)OC1=O [bafilomycin A1, reference compound]",,2.6,disappeared,,,7.2,,,,5.6,,,,3.2,,0.4,prevented,,,
"C/C=C/[C@H]1O[C@@](O)([C@@H](C)[C@H](O)[C@H](C)[C@H]2OC(=O)/C(OC)=C/C(C)=C/[C@@H](C)[C@@H](O)[C@@H](CC)[C@@H](O)[C@H](C)C/C(C)=C/C=C/[C@@H]2OC)C[C@@H](O[C@H]2C[C@@H](O)[C@H](OC(N)=O)[C@@H](C)O2)[C@@H]1C [concanamycin A, reference compound]",,0.56,disappeared,,,28,16.7,12.7,slight inhibition of comparable size,1.4,,,,0.23,,0.17,prevented,ca. 0.5 nmol per mg of protein,~10,
salicylihalamide,,,,failed to inhibit,,,,,,,,,,,,,does not bind to subunit c,ca. 0.5 nmol per mg of protein,~10,inhibition of mammalian V-ATPases (mammalian V-ATPases): effectively inhibited; inhibition of V-ATPases from fungi (V-ATPases from fungi): not at all
